Source: patent US10703748B2, “Diazanaphthalen-3-yl carboxamides and preparation and use thereof” (Samumed, LLC, priority 2017, dated 2020)
pEC50: −log10 of the molar value.

How the values were obtained:
IL-6 = IL-6 inhibition in LPS-stimulated human peripheral blood mononuclear cells (HTRF); settings: Homo sapiens, PBMC; for pEC50: 22 h; for inhibition at 10 µM: read-out: percentage in parentheses after EC50 >10
[1] = tested on: secreted cytokines TNFα, IL-6 and KC-GRO; assay: Secreted cytokines in Lipopolysaccharide-stimulated BV-2 cells (Table 9 does not say which cytokine); type: cell-based, mouse; settings: Mus musculus, BV-2, 5 h; read-out: EC50
[2] = tested on: SW480 colon carcinoma cells; assay: Cell viability assay (CellTiter-Glo); settings: Homo sapiens; for pEC50: SW480, 96 h; for inhibition at 10 µM: SW480, read-out: percent inhibition at 10 μM
Method: Representative compounds were screened using the assay procedure to assess the effect on cell viability as described below.
SW480 colon carcinoma cells were transduced with a lentiviral vector expressing luciferase with a human Sp5 promoter consisting of a sequence of eight TCF/LEF binding sites. […] These stably transduced SW480 cells were expanded in cell culture and used for all further screening activities. Each compound was dissolved in DMSO as a 10 mM stock and used to prepare compound source plates.
For the Cell Viability Assays, the cells were plated at 2,000 cells/well in 384-well plates with a DMEM medium containing 1% fetal bovine serum, and 1% Penicillin-Streptomycin and incubated for four days hours at 37° C. and 5% CO2. Eight replicates of DMSO-treated cells served as controls and cells treated with compound were performed in duplicate.
After incubation, 10 μL of CellTiter-Glo (Promega) was added to each well allowed to incubate for approximately 12 minutes. This reagent “results in cell lysis and generation of a luminescent signal proportional to the amount of ATP present. The amount of ATP is directly proportional to the number of cells present in culture, in agreement with previous reports. The CellTiter-Glo Assay generates a “glow-type” luminescent signal, produced by the luciferase reaction (Promega.com)”.
Dose-response curves were generated and EC50 concentration values were calculated using non-linear regression curve fit in the GraphPad Prism (San Diego, Calif.) or Dotmatics' Studies Software (Bishops Stortford, UK).

GSK3β kinase = GSK3β kinase (Homo sapiens, UniProt P49841); assay: GSK3β kinase activity (Ser/Thr 09 peptide Z-lyte FRET assay); type: biochemical; settings: recombinant kinase, 46 μM ATP, one hour at room temperature; read-out: EC50
GSK3β kinase, sequence (P49841 whole entry): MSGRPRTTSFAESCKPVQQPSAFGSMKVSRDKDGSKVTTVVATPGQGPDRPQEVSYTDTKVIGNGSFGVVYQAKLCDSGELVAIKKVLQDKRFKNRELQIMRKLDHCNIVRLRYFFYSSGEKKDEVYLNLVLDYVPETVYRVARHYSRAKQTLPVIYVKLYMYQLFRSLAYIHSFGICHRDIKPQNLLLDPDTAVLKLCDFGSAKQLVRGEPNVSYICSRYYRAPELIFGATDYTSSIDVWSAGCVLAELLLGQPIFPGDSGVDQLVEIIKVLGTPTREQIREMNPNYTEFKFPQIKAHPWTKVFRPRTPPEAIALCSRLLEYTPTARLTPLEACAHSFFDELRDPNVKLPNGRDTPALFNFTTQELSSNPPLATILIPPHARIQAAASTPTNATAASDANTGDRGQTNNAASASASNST
Method: Each compound is dissolved in DMSO as a 10 mM stock and used to prepare compound source plates. Serial dilution (1:3, 11-point dose-response curves from 10 μM to 0.0003 μM) and compound transfer was performed using the ECHO 550 (Labcyte, Sunnyvale, Calif.) into 1536-well black-walled round bottom plates (Corning).
This is a non-radioactive assay using fluorescence resonance energy transfer (FRET) between coumarin and fluorescein to detect kinase activity which is represented as ratio of coumarin emission/fluorescein emission.
The mixture is allowed to incubate with the representative compounds for one hour at room temperature. All reactions were performed in duplicate. Unphosphorylated (“0% Control”) and phosphorylated (“100% control”) forms of Ser/Thr 18 serve as control reactions.
After incubation, diluted Development Buffer is added to the reaction and allowed to further incubate for one hour at room temperature.
Dose-response curves are generated and inhibitory concentration (IC50) values are calculated using non-linear regression curve fit in the Dotmatics' Studies Software (Bishops Stortford, UK).

DYRK1A kinase = DYRK1A kinase (Homo sapiens, UniProt Q13627); assay: DYRK1A kinase activity (Ser/Thr 18 peptide Z-lyte FRET assay); type: biochemical; settings: recombinant DYRK1A, 30 μM ATP, one hour at room temperature;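 also: kinase activity read as coumarin/fluorescein emission ratio after development step, with unphosphorylated and phosphorylated peptide forms setting 0% and 100% controls, values from dose-response curves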
[3] = tested on: α-smooth muscle actin (aSMA) positive LL29 cells; assay: Inhibition of the fibrotic process: αSMA staining in TGF-β1 treated LL29 fibroblasts from IPF patients; settings: Homo sapiens, Fibroblast; for pEC50: 96 h; for inhibition at 10 µM: read-out: percentage in parentheses after EC50 >10
[4] = tested on: Tau phosphorylation at Threonine 212 (pT212Tau); assay: Tau phosphorylation at Threonine 212 (pT212Tau) in Dyrk1a- and MAPT-overexpressing HEK293T cells, sandwich ELISA; type: cell-based; settings: Homo sapiens, HEK-293T, overnight (16-18 hours), read-out: Thr212 EC50
Method: HEK293T cells (transfectable human embryonic kidney cells) were cultured in DMEM medium supplemented with 10% FBS and 1% penicillin/streptomycin.
HEK293T cells were transiently transfected to overexpress Dyrk1a and microtubule-associated protein Tau (MAPT) genes. Specifically, Dyrk1a and MAPT expression vectors were obtained from OriGene (10 μg of each, catalog numbers SC314641 and RC216166, respectively). A MaxiPrep for each vector was ordered and received from GeneWiz, yielding 874.5 μg (resuspended at […]) of the Dyrk1a expression vector, and 898 μg (resuspended at […]) of MAPT.
HEK293T cells were seeded at 1.0×10^7 cells in 10 mL per T-75 flask. […] One T-75 flask was designated as a no-vector negative control for pT212Tau signal.
After 4-6 hours of incubation in transfection reagents, transiently double transfected HEK293T cells were dissociated by treatment with trypsin EDTA and seeded at 1.0×10^5 cells in 100 μL per well in 96-well plates. No-vector negative controls were seeded in separate 96-well plates to avoid the risk of the negative control cells picking up the overexpression during incubation. At the time of seeding, DMSO-resuspended Samumed compounds were dispensed to eight wells as a serial dilution from 10 μM to 4.6 nM final concentration in medium, or at 0.12 μM to 0.05 nM with particularly potent compounds. Cells were exposed to the representative compounds overnight (16-18 hours) in a 37° C. incubator.
96-Well flat-bottom plates were coated with 100 μL per well anti-HT7 capture antibody (ThermoFisher, MN1000) diluted 1:300 in 1×PBS at 4° C. overnight, with shaking at 500 rpm. After overnight capture antibody incubation, coated plates were washed four times with 200 μL per well of 1×PBS-0.05% Tween-20, and blocked for 1 hour with 200 μL per well of 1×PBS with 2% BSA. After 1 hour of blocking, plates were washed four times with 200 μL per well of 1×PBS-0.05% Tween-20, prior to sample loading.
Wells of compound-treated cells were visually checked for cell death before being washed with 200 μL per well of 1×DPBS supplemented with phosphatase inhibitor diluted to 1×. Cells were then lysed with 100 μL 1×RIPA buffer supplemented with phosphatase and protease inhibitors (each diluted to a final 1×). Cells were shaken at 500 rpm, 4° C. for 20 minutes prior to further lysis (via manual scraping) and transfer to 96-well V-bottom collection plates (Corning, 3894). V-bottom plates were centrifuged at 4000 rpm, 4° C., for 15 minutes, and 100 μL of lysate supernatant from each well was directly tested for pT212Tau signal by sandwich ELISA.
Specifically, lysates were directly transferred to the coated and blocked ELISA plates for 2 hours before plates were washed four times with 200 μL per well of 1×PBS-0.05% Tween-20 and probed with 100 μL per well of anti-pT212Tau antibody (ThermoFisher, 44-740G) diluted 1:200 in 1×PBS for 2 hours. Plates were washed four times with 200 μL per well of 1×PBS-0.05% Tween-20 and probed with 100 μL per well of anti-rabbit/HRP conjugate (Cell Signaling Technology, 7074S) diluted 1:600 in 1×PBS for 1 hour. Plates were washed four times with 200 μL per well of 1×PBS-0.05% Tween-20 before 100 μL per well of TMB substrate solution (ThermoFisher, N301) was added. When colour development was observed, 100 μL per well of stop solution (ThermoFisher, N600) was added, and colorimetric detection of pT212Tau signal was read at 450 nm with the Cytation 3 Cell Imaging Multi-Mode Reader (BioTek). The signal was used to plot, draw the curves fitting, and determine the EC50 values in GraphPad Prism for tested representative compounds.

[5] = tested on: Wnt-responsive Sp5-Luc reporter in SW480 colon carcinoma cells; assay: Screening assay for Wnt activity (Sp5-Luc reporter gene assay); settings: Homo sapiens; for pEC50: SW480; for inhibition at 10 µM: SW480, read-out: percent inhibition at 10 μM
[6] = tested on: Tau phosphorylation at Ser396 (pSer396); assay: Tau phosphorylation at Ser396 (pSer396) in SH-SY5Y cells, ELISA / western blot; type: cell-based, human; settings: Homo sapiens; SH-SY5Y cells, overnight (16-18 h); read-out: pSer396 Tau EC50;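 also: decrease in pSer396 Tau measured in lysates of treated cells by colorimetric ELISA or chemiluminescent western blot, same pSer396 antibody for both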
Method: Two days before treatment, cells were seeded onto 96 well plates at 5×10^4 cells/well.
The above synthesized compounds were screened using the cell assay procedure to assess decrease Tau phosphorylation at Ser396 (pSer396) described below.
Cells were lysed with RIPA buffer complemented with phosphatase and protease inhibitors then lysates were spun down at 12,000 g for 10 min to remove any cellular debris.

pEC50 (IL-6)	pEC50 [1]	pEC50 [2]	pEC50 (GSK3β kinase)	pEC50 (DYRK1A kinase)	pEC50 [4]	pEC50 [5]	pEC50 [6]	SMILES	inhibition at 10 µM (IL-6)	inhibition at 10 µM [2]	pEC50 [3]	inhibition at 10 µM [3]	inhibition at 10 µM [5]
< 5.00	5.95	< 5.00	6.27	7.15	6.58	< 5.00	–	CN1CCCN(CC(=O)Nc2cc3nc(-c4cnn(C)c4)ccc3cn2)CC1 [Compound 105, 2-(4-Methyl-1,4-diazepan-1-yl)-N-(2-(1-methyl-1H-pyrazol-4-yl)-1,6-naphthyridin-7-yl)acetamide]	2.6%	38.9%	< 5.00	16.9%	45.4%
5.03	6.78	5.24	7.00	8.40	–	5.55	5.15	Cc1ncc(-c2ccc3cnc(NC(=O)[C@H]4CC[C@H](CO)CC4)cc3n2)s1 [Compound 4558, trans-4-(Hydroxymethyl)-N-(2-(2-methylthiazol-5-yl)-1,6-naphthyridin-7-yl) cyclohexane-1-carboxamide]	–	–	6.56	–	–
5.07	6.39	< 5.00	6.96	7.85	–	< 5.00	5.62	Cc1ncc(-c2ccc3cnc(NC(=O)[C@H]4CC[C@H](N(C)C)CC4)cc3n2)s1 [Compound 4559, trans-4-(Dimethylamino)-N-(2-(2-methylthiazol-5-yl)-1,6-naphthyridin-7-yl) cyclohexane-1-carboxamide]	–	44.8%	6.23	–	40.8%
< 5.00	–	5.65	< 5.00	8.10	6.62	6.24	–	CN1CCC(Nc2cc(C(=O)Nc3ncc4ccc(-c5cnn(C)c5)cc4n3)ccn2)CC1 [Compound 4569, N-(7-(1-Methyl-1H-pyrazol-4-yl)quinazolin-2-yl)-2-((1-methylpiperidin-4-yl)amino)isonicotinamide]	42.3%	–	5.39	–	–
< 5.00	6.58	< 5.00	< 5.00	7.54	–	< 5.00	< 5.00	O=C(Nc1cc2cc(-c3cnco3)cnc2cn1)[C@H]1CC[C@H](CO)CC1 [Compound 4610]	10.3%	24.6%	5.38	–	9.1%
< 5.00	6.97	< 5.00	5.42	7.74	–	< 5.00	5.98	CN(C)[C@H]1CC[C@H](C(=O)Nc2cc3cc(-c4cncs4)cnc3cn2)CC1 [Compound 4618]	6.3%	36.1%	5.32	–	14.6%

Continued, compound first:

SMILES	pEC50 (IL-6)	pEC50 [1]	pEC50 [2]	pEC50 (GSK3β kinase)	pEC50 (DYRK1A kinase)	pEC50 [4]	pEC50 [5]	pEC50 [6]	inhibition at 10 µM (IL-6)	inhibition at 10 µM [2]	pEC50 [3]	inhibition at 10 µM [3]	inhibition at 10 µM [5]
Cn1ncc(-c2ccc3cnc(NC(=O)C4CC5(C4)CN(CCF)C5)cc3n2)c1CN1CCCCC1 [Compound 280, 2-(2-Fluoroethyl)-N-(2-(1-methyl-5-(piperidin-1-ylmethyl)-1H-pyrazol-4-yl)-1,6-naphthyridin-7-yl)-2-azaspiro[3.3]heptane-6-carboxamide]	5.24	–	5.62	6.47	6.82	7.49	< 5.00	–	–	–	5.60	–	33.7%
Cc1ncc(-c2ccc3cnc(NC(=O)N4CCC(N5CCOCC5)CC4)cc3n2)o1 [Compound 566, N-(2-(2-Methyloxazol-5-yl)-1,6-naphthyridin-7-yl)-4-morpholinopiperidine-1-carboxamide]	< 5.00	–	< 5.00	6.21	7.11	5.18	< 5.00	–	3.6%	19.7%	< 5.00	35.2%	33.2%
Cn1cncc1-c1ccc2cnc(NC(=O)c3ccc(F)cc3)nc2c1 [Compound 1354, 4-Fluoro-N-(7-(1-methyl-1H-imidazol-5-yl)quinazolin-2-yl)benzamide]	< 5.00	–	5.27	5.93	8.70	8.22	5.62	–	39.9%	–	5.29	–	–
Cc1nnc(-c2ccc3cnc(NC(=O)CN4C5CCC4CC5)nc3c2)s1 [Compound 1632, 2-(7-Azabicyclo[2.2.1]heptan-7-yl)-N-(7-(5-methyl-1,3,4-thiadiazol-2-yl)quinazolin-2-yl)acetamide]	< 5.00	–	< 5.00	6.03	6.30	6.40	< 5.00	–	4.2%	21.3%	< 5.00	28.8%	19.2%
Cc1ncc(-c2ccc3cnc(NC(=O)C4CCN(C5COC5)CC4)cc3n2)s1 [Compound 4560, N-(2-(2-Methylthiazol-5-yl)-1,6-naphthyridin-7-yl)-1-(oxetan-3-yl) piperidine-4-carboxamide]	< 5.00	6.93	< 5.00	6.90	7.85	–	< 5.00	6.00	2.7%	37.5%	6.11	–	49.7%
O=C(Nc1ncc2ccc(-c3cncs3)cc2n1)[C@H]1CC[C@H](CO)CC1 [Compound 4586, trans-4-(hydroxymethyl)-N-(7-(thiazol-5-yl)quinazolin-2-yl)cyclohexane-1-carboxamide]	< 5.00	6.42	< 5.00	6.47	8.70	–	< 5.00	5.06	4.8%	25.1%	5.35	–	29.6%
CN1CCN(c2ncc(C(=O)Nc3cc4cc(-c5cnn(C)c5)ncc4cn3)s2)CC1 [Compound 4632, N-(6-(1-methyl-1H-pyrazol-4-yl)-2,7-naphthyridin-3-yl)-2-(4-methylpiperazin-1-yl)thiazole-5-carboxamide]	< 5.00	6.15	< 5.00	6.49	8.30	–	6.04	5.10	6.8%	40.9%	< 5.00	35.5%	–
